Experimental data published in ChEMBL document CHEMBL4602701 (J Med Chem, 2020).

Assays:
[1] = molecular target: T1, Steroid 17-alpha-hydroxylase/17,20 lyase (Homo sapiens, UniProt P05093); assay: Binding affinity to C-terminal 6-His-tagged human CYP17A1 expressed in Escherichia coli assessed as induction of type II binding spectral changes at 50 uM using 1 uM CYP17A1 by spectroscopy
T1 sequence (P05093 whole entry): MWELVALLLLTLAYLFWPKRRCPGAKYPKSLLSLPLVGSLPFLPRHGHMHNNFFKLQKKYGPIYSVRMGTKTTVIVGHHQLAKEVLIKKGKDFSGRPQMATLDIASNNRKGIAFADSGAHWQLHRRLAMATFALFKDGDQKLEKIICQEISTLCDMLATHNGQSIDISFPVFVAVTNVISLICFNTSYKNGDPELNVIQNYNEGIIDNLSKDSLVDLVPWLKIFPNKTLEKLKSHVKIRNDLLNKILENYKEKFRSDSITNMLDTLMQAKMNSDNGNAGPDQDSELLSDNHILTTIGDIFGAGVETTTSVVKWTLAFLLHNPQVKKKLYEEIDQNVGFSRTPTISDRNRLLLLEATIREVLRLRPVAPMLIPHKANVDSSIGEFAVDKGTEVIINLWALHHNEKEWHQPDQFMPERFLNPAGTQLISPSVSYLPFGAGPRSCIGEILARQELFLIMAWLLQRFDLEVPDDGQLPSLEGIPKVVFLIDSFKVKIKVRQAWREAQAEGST

[2] = molecular target: T1, Steroid 17-alpha-hydroxylase/17,20 lyase; assay: Binding affinity to C-terminal 6-His-tagged human CYP17A1 expressed in Escherichia coli assessed as induction of spectral changes by measuring rate constant of first reaction at 20 uM using 2 uM CYP17A1 by spectroscopy
[3] = molecular target: T1, Steroid 17-alpha-hydroxylase/17,20 lyase; assay: Binding affinity to C-terminal 6-His-tagged human CYP17A1 expressed in Escherichia coli assessed as induction of spectral changes by measuring rate constant of second reaction at 20 uM using 2 uM CYP17A1 by spectroscopy

- Activity [1]: Active
- K [2]: 44 to 45 s⁻¹
- K [3]: 1.9 s⁻¹
Compound: CC(C)[C@](O)(c1ccc2cc(OC(F)F)c(OC(F)F)cc2c1)c1c[nH]nn1 [SEVITERONEL]
